How the values were obtained:
Format in all cases: in vivo
[1] = system: creeping bentgrass (Argostis palustris) fairway; test: Example 2, 2013 urea (46-0-0)/canola oil study: turfgrass quality rating; settings: scale 1-9, 7 = acceptable
Source text: This study was established on an irrigated, creeping bentgrass (Argostis palustris) fairway (˜0.5 in (1.3 cm) height of cut) on the same research center as in Example 1. The study was established in four replications of a randomized block design, using 2 ft.×10.5 ft. (0.6 m×3.2 m) plots with 6 in. (0.15 m) alleys. Prior to the study, diseases were controlled with as-needed fungicide applications. Fertility was maintained at approximately 0.1 lb. N/1000 ft^2 (0.49 g/m^2)/mo. […] Turfgrass quality ratings and biomass ratings were performed as described in Example 1. Clippings were also collected as described in Example 1.
Treatments of sprayable urea (46-0-0) (The Andersons, Inc.) hereinafter “Urea (46-0-0)” and Civitas/Harmonizer fungicide/turf pigment (Suncor Energy Corp.) were applied initially on Aug. 22, 2013.

[2] = system: creeping bentgrass (Argostis palustris) fairway; test: Example 2: visual growth (biomass) rating; settings: scale 1 = least, 9 = most increase
irrigated putting green [3] = test: Example 15: dried clipping weights; settings: application interval 14 days; for All Clippings (Dried), Mean Total Clippings: Sept 19-Oct. 24
Method: Some biomass ratings were subjective visual estimations based on appearance of a combination of increased biomass and increased density on a 1 (least increase) to 9 (most increase) scale. Objective biomass ratings were also performed based on an increase in dried weight of clippings. Clippings were collected over pre-measured plot areas in each treatment replicate using a Toro® brand walk-behind greens mower Model Greensmaster 8000 at the height described in this Example and dried in a drying oven (60° C.) for approximately 48 hours before being weighed.
(§1) The study was established in four replications of a randomized block design utilizing 2 ft.×21 ft. plots with 6 inch alleys. Treatments were initially applied on Sep. 13, 2016 with the same sprayer and under the same conditions described in Example 1. Turfgrass quality ratings and biomass ratings were performed as described in Example 1. The plots were trimmed on September 19, October 8, and Oct. 24, 2016 and clippings were also collected as described in Example 1.
(§2) Treatments were re-applied on Sep. 28, 2016 and Oct. 11, 2016. Turfgrass visual growth and quality ratings were taken periodically, along with turfgrass color ratings as taken with a Spectrum Technologies, Inc. TCM 500 NDVI Color Meter and a Spectrum Technologies, Inc. FieldScout CM 1000 Chlorophyll Meter. The study was irrigated as needed to prevent wilt. No background fertility was applied to the study area. The area was sprayed with 26GT fungicide on Sep. 27, 2016 to control dollar spot disease.

irrigated putting green [4] = test: Example 15: visual turfgrass growth rating; settings: scale 1-5 (1 = least, 5 = most)
Method: as §1, §2

irrigated putting green [5] = test: Example 15: turfgrass color (chlorophyll) rating, FieldScout CM 1000 Chlorophyll Meter
Method: as §1, §2
The turfgrass color (chlorophyll) rating of Oct.

irrigated putting green [6] = test: Example 15: dew rating; settings: Sept. 15, visual scale 1 = least
Method: as §1, §2
Dew reduction (Table 25) is directly related to the amount of bio-adjuvant applied, specifically, the amount of canola oil in the treatment. Dew reduction is relevant to disease control because it can translate into reduced foliar disease pressure, and reduced frost accumulation. […] 15, 2016.

[7] = system: winter-dormant creeping bentgrass putting green (Agrostis palustris); test: Example 4, 2013 spring green-up/winter dormancy break study: turfgrass quality rating; settings: May 11, 2013; scale 1-9, 7 = acceptable; per 1000 ft^2, as far as in the treatment: canola oil concentrate (94.7%:4.7%:0.8% oil:Foursome:Silwet L-77) 8 fl. oz., Urea 0.2 lb. N
Source text: This study was established on a brown, desiccated, winter-dormant creeping bentgrass putting green (Agrostis palustris) (˜0.15 in ([…]) height of cut) on the same research center as in previous examples. The study was established in four replications of a randomized block design, using 2 ft.×7.5 ft. (0.6 m×2.3 m) plots with 6 in. (0.15 m) alleys. Treatments were applied with the backpack sprayer described in Example 1 operating at 40 PSI (2.8 kg/cm^2) with a 96 GPA (898 L/ha) spray volume. Treatments were applied in this “green-up”/winter dormancy break study on a 21-day schedule on Apr. 5, 2013, and Apr. 27, 2013 Turfgrass quality ratings in this example included observations of increased density, increased growth, and degree of color intensity change. These observations were taken on May 11, 2013, and were based on a visual 1 (worst) −9 (best) rating scale, with a 7-rating representing acceptable turfgrass “quality.”

irrigated putting green [8] = test: Example 15: turfgrass color rating, TCM 500 NDVI Color Meter; settings: Sept. 16, TCM 500 NDVI Turf Color Meter
Method: as §1, §2

[9] = Sep. 3, 2013, one application, per 1000 ft^2, as far as in the treatment: Urea 0.1 lb. N, Canola Oil Concentrate/Bio-Adjuvant 10 fl. oz., Civitas 8 + Harmonizer 0.5 fl. oz.
[10] = Sep. 3, 2013, Urea 0.2 lb. N/1000 ft^2, Canola Oil 10 fl. oz. or Civitas 8 + Harmonizer 0.5 fl. oz. where in the treatment
[11] = Sep. 3, 2013, Urea 0.3 lb. N/1000 ft^2, Canola Oil Bio-Adjuvant 10 fl. oz. or Civitas 8 + Harmonizer 0.5 fl. oz. where in the treatment
[12] = Trt. 4, 0.1 lb N/1000 sq. ft. /14 days, Oct. 6
[13] = Trt. 5, 0.05 lb N/1000 sq. ft. /14 days, Oct. 6
[14] = Trt. 4, 0.1 lb N/1000 sq. ft. /14 days
[15] = Trt. 5, 0.05 lb N/1000 sq. ft. /14 days

## NC(N)=O [Urea (46-0-0), urea]
[1]; [9]
  Turfgrass Quality: 6.5 ef
[1]; [10]
  Turfgrass Quality: 6.75 de
[1]; [11]
  Turfgrass Quality: 7.5 bc
[2]; [9]
  Visual Growth (Biomass): 3 ef
[2]; [10]
  Visual Growth (Biomass): 3.75 de
[2]; [11]
  Visual Growth (Biomass): 3.75 de
Irrigated putting green [3]; Trt. 4, 0.1 lb N/1000 sq. ft., Oct. 8
  Dried Clipping Weight, Mean: 62.5 gms
Irrigated putting green [3]; Trt. 4, 0.1 lb N/1000 sq. ft., Oct. 24
  Dried Clipping Weight, Mean: 55.8 gms
Irrigated putting green [3]; Trt. 4, 0.1 lb N/1000 sq. ft.
  All Clippings (Dried), Mean Total Clippings: 189.8 gms
Irrigated putting green [3]; Trt. 4, 0.1 lb N/1000 sq. ft., Sept. 19
  Dried Clipping Weight, Mean: 71.5 gms
Irrigated putting green [3]; Trt. 5, 0.05 lb N/1000 sq. ft., Oct. 8
  Dried Clipping Weight, Mean: 59.5 gms
Irrigated putting green [3]; Trt. 5, 0.05 lb N/1000 sq. ft., Oct. 24
  Dried Clipping Weight, Mean: 46.5 gms
Irrigated putting green [3]; Trt. 5, 0.05 lb N/1000 sq. ft.
  All Clippings (Dried), Mean Total Clippings: 177.3 gms
Irrigated putting green [3]; Trt. 5, 0.05 lb N/1000 sq. ft., Sept. 19
  Dried Clipping Weight, Mean: 71.3 gms
Irrigated putting green [4]; [12]
  Visual Turfgrass Growth, MEAN: 2.5
Irrigated putting green [4]; Trt. 4, 0.1 lb N/1000 sq. ft. /14 days, Sept. 19
  Visual Turfgrass Growth, MEAN: 2.5
Irrigated putting green [4]; Trt. 4, 0.1 lb N/1000 sq. ft. /14 days, Sept. 25
  Visual Turfgrass Growth, MEAN: 3.8
Irrigated putting green [4]; [13]
  Visual Turfgrass Growth, MEAN: 2.3
Irrigated putting green [4]; Trt. 5, 0.05 lb N/1000 sq. ft. /14 days, Sept. 19
  Visual Turfgrass Growth, MEAN: 2.8
Irrigated putting green [4]; Trt. 5, 0.05 lb N/1000 sq. ft. /14 days, Sept. 25
  Visual Turfgrass Growth, MEAN: 3.3
Irrigated putting green [5]; [12]
  Turfgrass Color (Greenness), MEAN, chlorophyll meter reading: 352.5
Irrigated putting green [5]; Trt. 4, 0.1 lb N/1000 sq. ft. /14 days, Oct. 25
  Turfgrass Color (Greenness), MEAN, chlorophyll meter reading: 272.3
Irrigated putting green [5]; [13]
  Turfgrass Color (Greenness), MEAN, chlorophyll meter reading: 352.3
Irrigated putting green [5]; Trt. 5, 0.05 lb N/1000 sq. ft. /14 days, Oct. 25
  Turfgrass Color (Greenness), MEAN, chlorophyll meter reading: 261
Irrigated putting green [6]; [14]
  Dew rating, Mean: 5.0
Irrigated putting green [6]; [15]
  Dew rating, Mean: 5.0
[7]
  Turfgrass Quality: 6.0 c
Irrigated putting green [8]; [14]
  Turfgrass Color (Greenness), MEAN, NDVI reading: 0.761
Irrigated putting green [8]; [15]
  Turfgrass Color (Greenness), MEAN, NDVI reading: 0.755
